Results from patent US7807654B2, “Compositions and methods for treatment of mitochondrial diseases” (Wellstat Therapeutics Corporation, priority 1998, dated 2010).

Tests used:
[1] = molecular target: cytochrome oxidase (Complex IV) (Homo sapiens, UniProt P00395); conditions: Brown G C, Mol. Cell. Biochem. 174:189-192, 1997; cited from earlier work
3NP treated mice [2] = test: 3NP model with TAU, creatine or coenzyme Q10: mortality and body weight; assay type: in vivo, CD-1 mice; conditions: for mortality due to 3NP treatment: experiments 1 and 2 (FIGS. 1 and 2), 6% TAU, 2% creatine, coenzyme Q10 200 mg/kg chow
Protocol: (§1) Retired male CD-1 mice, 7-9 months of age, (Strain: Cr:NIH (S); Source: NCI) weighing 30-40 g were housed singly throughout the study. The animals were kept on a 12-hour light/dark cycle, with food and water continuously available. The animals were acclimated to our facility for seven days before experimentation. The mice were randomly assigned treatment groups.
The mice were given 3NP at a dose of 40, 40, 50, 50, 60 and 60 mg/kg i.p. on days 1-6 and 50 mg/kg i.p. on days 5-12.
(§2) The mice were given 3NP at a dose of 40, 40, 50, 50, 60 and 60 mg/kg i.p. on days 1-6 and 50 mg/kg i.p. on days […] was made up at 4, 5 or 6.0 mg/ml in sterile water (pH to 7.4 with 1.0 NaOH) and 0.1 ml/10 g BW was given (i.p) to each mouse at 3-4 PM.
The dosing of TAU (Nagase & Co., Ltd., Chemicals Second Division, 5-1, Nihonbashi-Kobunacho, Chuo-Ku, Tokyo 103, Japan; Lot 103 H 0060) was mixed into the rodent chow at 6% weight/weight. Creatine (Sigma) was mixed into the chow at 2% (weight/weight) that is previously reported to be the optimal dose (Matthews, Yang et al. 1998). Coenzyme Q10 (Sigma) was also provided in the chow at a dose 200 mg/kg chow) previously shown to be effective (Matthews, Yang et al. 1998).
• n=9-12/group • Vehicle+Vehicle • Vehicle+3NP • TAU+3NP • Creatine+3NP • TAU and Creatine+Vehicle
• (n=8-10/group) • Vehicle+Vehicle • Vehicle+3NP • TAU+3NP • Coenzyme Q10+3NP • TAU and Coenzyme Q10+Vehicle
• (n=8-10/group) • Vehicle+Vehicle • Vehicle+3NP • 8% TAU+Vehicle • 2% TAU+3NP • 4% TAU+3NP • 8% TAU+3NP
Data were analyzed by one- or two-way ANOVA followed by comparison of treatments by the Tukey test. Data are represented as mean±SEM.

3NP treated mice [3] = test: 3NP model with TAU, creatine or coenzyme Q10: rotarod; assay type: in vivo, CD-1 mice
Protocol: as §1, §2
The dosing of TAU (Nagase & Co., Ltd., Chemicals Second Division, 5-1, Nihonbashi-Kobunacho, Chuo-Ku, Tokyo 103, Japan; Lot 103 H 0060) was mixed into the rodent chow at 6% weight/weight. Creatine (Sigma) was mixed into the chow at 2% (weight/weight) that is previously reported to be the optimal dose (Matthews, Yang et al. 1998). Coenzyme Q10 (Sigma) was also provided in the chow at a dose 200 mg/kg chow) previously shown to be effective (Matthews, Yang et al. 1998). […]
The Rotarod apparatus (San Diego Instruments, San Diego, Calif.) was used to measure fore- and hindlimb motor coordination and balance. […] The latency to fall off the rotarod within this time period was recorded. […]
(§3) Data were analyzed by one- or two-way ANOVA followed by comparison of treatments by the Tukey test. […]

3NP treated mice [4] = test: 3NP model with TAU, creatine or coenzyme Q10: locomotor activity; assay type: in vivo, CD-1 mice
Protocol: as §1, §2
The dosing of TAU (Nagase & Co., Ltd., Chemicals Second Division, 5-1, Nihonbashi-Kobunacho, Chuo-Ku, Tokyo 103, Japan; Lot 103 H 0060) was mixed into the rodent chow at 6% weight/weight. Creatine (Sigma) was mixed into the chow at 2% (weight/weight) that is previously reported to be the optimal dose (Matthews, Yang et al. 1998). […]
The Photobeam Activity System (San Diego Instruments, San Diego, Calif.) was used to measure spontaneous activity. […] Spontaneous activity was quantified by placing mice in the Photobeam Activity System for a period of 30 min. […]
as §3

3NP treated mice [5] = test: 3-nitropropionic acid (3NP) model of Huntington's disease; assay type: in vivo, Swiss mice
Protocol: Male 6-8 month old Swiss mice (National Cancer Institute; NCI, Frederick, Md.) were treated with 3NP (65 mg/kg i.p.) daily for 4 days to induce mortality, neuronal cell loss and behavioral impairment with n=8/group. […] On day 9, the mice were perfuse fixed with 10% buffered formalin and processed for silver staining to detect neuronal damage. […] There was no mortality in the 3NP+TAU group, but 3 of 8 mice died in the vehicle+3NP group.
Behavioral scoring of the 3NP treated mice was to determine whether there was any motor impairment at anytime during the study. There were 88% of the control+3NP treated mice with behavioral impairment indicated by gross observation. A decreased incidence of impairment of only 50% was found in the TAU+3NP treated mice.
The silver staining was analyzed by a pathologist blinded to the identity of tissue samples. […] However, in the control+3NP treated mice, silver staining of synaptic terminals in the striatal area (caudate/putamen area) and substantia nigra was pronounced. Silver impregnation of axons and/or synaptic terminals in the thalamus, deep mesencephalon and/or reticular formation (medulla) was also found in […] of the control+3NP treated mice. The substantia nigra projects to the striatum and these areas are especially vulnerable to damage by 3NP. The damage to the substantia nigra and striatum was prevented by TAU.

3NP treated mice [6] = test: 3-nitropropionic acid (3NP) model of epilepsy; assay type: in vivo, CD-1 mice
Description: 3-nitropropionic acid (3NP) is a mitochondrial toxin that acts by inhibiting Complex II of the respiratory chain; it is used to induce brain lesions similar to those characteristic of Huntington's disease. Seizures can also be induced by the use of 3NP as a model of epilepsy and mitochondrial dysfunction. Urbanska et al., Eur J Pharmacol, 359: 55-8 (1998). Male CD-1 mice (National Cancer Institute, NCI, Frederick. Md.) weighing between […] were used throughout. Mice were divided into groups of 5 and animals for each group were randomly chosen from different cages to avoid possible influence of age. The mice were maintained on a 12 hr light dark cycle with free access to water and food. All experiments were performed during the light period between 9:00 and 16:00 hr. Mice (n=17-20) were given 160 mg/kg 3NP and followed for seizures. 3NP was made up at 16 mg or 18 mg/ml in sterile water (pH: 7.4). 3NP was administered i.p. in a volume of 0.1 m/10 g body weight. […] Seizures were assessed similar to the methods previously described (Roberts & Keith, J Pharmacol Exp Ther, 270:505-11, 1994; Urbanska et al., Eur J Pharmacol, 359:55-8, 1998).
Behavioral observations were performed within 120 min following application of 3-NP. Three major categories of convulsive seizure response were been considered and recorded: • 1. Clonic movements: the movements of the forelimbs accompanied by facial twitching; • 2. Explosive clonic movements: the movement of all four limbs involving running, jumping and bouncing; • 3. Tonic response: including tonic flexion and tonic extension of the all four limbs.
Mortality rate was evaluated at 120 min after 3NP injection.

[7] = test system: Normal human neural progenitor (NHNP) cells; test: Survival of differentiated NHNP cells without glucose and with azide (LDH/MTT); assay type: cell-based; conditions: no glucose, sodium azide 0, 2, 4 and 8 mM, 20 hours (FIG. 16)
Protocol: NHNP cells derived from fetal brain were obtained from Clonetics (Walkersville, Md.; cat# CC-2598). The NHNP cells can be differentiated into neurons, glial cells, endothelial cells or microglial cells. […] Rockville, Md.) and hLIF (R&D System, Cat. 250-L-050. […] NHNP cells, passage 3-14 were plate in 96 well plates at 10 k cells/well and differentiated for 10 days. On the day of the experiment, cells were washed with DMEM without glucose, then incubated 20 hours in 100 μl of DMEM, no glucose and dialyzed 1% FBS (Life Technology Cat. 26300-061). […] Cell survival was assessed by the ratio of extracellular lactate dehydrogenase (LDH)/intracellular total dehydrogenase activity (MTT assay). Each condition was assayed in triplicate or quadruplicate. […] Extracellular LDH was assayed with 50 μl of supernatant using the Cytotoxicity Assay Kit (CytoTox 96 Non-Radioactive Cytotoxicity Assay; Promega, Cat. G1780. Madison, Wis.) according to kit instructions and read OD at 490 nm. After removing medium from the NHNP cells, 100 μl of assay medium (DMEM, no glucose and dialyzed 1% FBS) was added back to the cells. MTT was assayed in cells according to the kit instructions using Cell Proliferation Assay Kit (Promega, Cat. G4100. Madison, Wis.). Dye solution (15 μl) was added to each well and incubated 4 hours at 37° C. […] OD was read at 570 nm.

taxol-treated mice = test: Taxol-induced neuropathy, tail-flick latency; assay type: in vivo; conditions: nine days after initiation of taxol 21.6 mg/kg/day i.p. for 6 days; oral triacetyluridine 4000 mg/kg b.i.d.
Protocol: Two groups of 10 mice each were treated with taxol, 21.6 mg/kg/day for 6 consecutive days by intraperitoneal injection. An additional group of 10 mice received injections of vehicle alone. One of the groups of taxol-treated mice received oral triacetyluridine, 4000 mg/kg b.i.d. Nine days after the initiation of taxol treatments, nociceptive sensory deficits were tested by determining tail-flick latency after exposure of the tip of the tail to focused thermal radiation with an infrared heat lamp. In this system, delays in the tail-flick response to radiant heat correlate with sensory nerve deficits.

MPTP treated mice [8] = test: MPTP model of Parkinson's disease, first study
MPTP treated mice [9] = test: MPTP model of Parkinson's disease, second study; assay type: in vivo, C57/BL6 mice; conditions: MPTP b.i.d. for 2 days, sacrificed on day 9, mean ± SEM
Protocol: A second study using MPTP (25 mg/kg i.p. b.i.d. for 2 days) was performed. […] TAU or vehicle was given orally (dose of TAU=4 g/kg bw b.i.d.) starting the day before MPTP administration and ending on day 8. Mice were sacrificed on day 9.

[10] = test system: mice given intrastriatal QA; test: Quinolinic acid (QA) model of excitotoxicity; assay type: in vivo, Swiss mice; conditions: TAU 4 g/kg bw p.o. b.i.d.
[11] = 160 mg/kg 3NP i.p., TAU 4 g/kg p.o. 2 hours prior, within 120 min

Compound: [N]=O [Nitric oxide]
- concentration that inhibits cytochrome oxidase / mitochondrial respiration [1]: ~1 µM

Compound: COC1=C(OC)C(=O)C(C/C=C(\C)CC/C=C(\C)CC/C=C(\C)CC/C=C(\C)CC/C=C(\C)CC/C=C(\C)CC/C=C(\C)CC/C=C(\C)CC/C=C(\C)CCC=C(C)C)=C(C)C1=O [coenzyme Q10]
- loss in body weight due to 3NP (3NP treated mice [2]; experiment 2 (FIG. 5)): attenuated
- mortality due to 3NP treatment (3NP treated mice [2]): decreased mortality
- impairment in rotarod performance at 10 RPM due 3NP treatment (3NP treated mice [3]; experiment 2 (FIG. 11)): attenuated
- decrease in activity due 3NP treatment (3NP treated mice [4]; experiment 2 (FIG. 8)): attenuated

Compound: O=C(O)CC[N+](=O)[O-] [3NP, 3-nitropropionic acid]
- mortality due to 3NP (3NP treated mice [5]; 3NP 65 mg/kg i.p. daily for 4 days, TAU 4 g/kg bw p.o. b.i.d., n=8/group): 3 of 8
- mice with behavioral (motor) impairment by gross observation (3NP treated mice [5]; at anytime during the study): 88%
- mice with silver impregnation of axons and/or synaptic terminals in thalamus, deep mesencephalon and/or reticular formation (3NP treated mice [5]; day 9): 80%
- neuronal damage by silver staining (striatal area, substantia nigra) (3NP treated mice [5]; day 9, blinded pathologist): pronounced
- Latency to clonic seizure (3NP treated mice [6]; 160 mg/kg 3NP i.p., TAU 4 g/kg p.o. 2 hours prior, mean ± SEM): 23.8 ± 0.7 min
- % Clonic seizures (3NP treated mice [6]; [11]): 90.0%
- % Running seizures (3NP treated mice [6]; [11]): 42.9%
- % Mortality (3NP treated mice [6]; at 120 min after 3NP injection): 35%

Compound: O=c1ccn([C@@H]2O[C@H](CO)[C@@H](O)[C@H]2O)c(=O)[nH]1 [Uridine, uridine]
- uridine concentration required for robust protection of cells [7]: ≥ 50 µM

Compound: CN(CC(=O)O)C(=N)N [creatine]
- mortality due to 3NP treatment (3NP treated mice [2]): not
- impairment of rotarod performance at 5 RPM due to 3NP (3NP treated mice [3]; experiment 1 (FIG. 10)): significantly (p<0.01)
- decrease in activity due 3NP treatment (3NP treated mice [4]; experiment 1 (FIG. 7)): not attenuated

Compound: CC(=O)O[C@H]1C(=O)[C@@]2(C)[C@H]([C@H](OC(=O)c3ccccc3)[C@]3(O)C[C@H](OC(=O)[C@H](O)[C@@H](NC(=O)c4ccccc4)c4ccccc4)C(C)=C1C3(C)C)[C@]1(OC(C)=O)CO[C@@H]1C[C@@H]2O [Taxol, taxol]
- Tail flick latency (taxol-treated mice): 16.0 ± 3.1 s

Compound: CN1CC=C(c2ccccc2)CC1 [MPTP, 1-methyl-4-phenyl-1,2,3,6-tetrahydropyridine]
- mortality (MPTP treated mice [8]; MPTP 30 mg/kg i.p. b.i.d. for 1.5 days, TAU 4 g/kg p.o. b.i.d.): 71.4%
- Striatal DA, MPTP-treated mice (MPTP treated mice [8]; first study, eight days after stopping MPTP, mean ± SEM): 9.2 ± 2.2 ng DA/mg protein
- Striatal DA, MPTP-treated mice (MPTP treated mice [9]): 15.9 ± 2.2 ng DA/mg protein

Compound: O=C(O)c1cccnc1C(=O)O [QA, Quinolinic acid]
- percent of mice surviving the 7 days ([10]; 50 nmoles QA bilaterally in striatum): 64%
- percent of mice surviving the 7 days ([10]; 100 nmoles QA bilaterally in striatum): 4%
